Measured values: the NIST ThermoML archive (doi:10.1016/j.jct.2017.03.033)
± gives the expanded uncertainty stated by the source.

Experiment: molar heat capacity at constant pressure
Settings: Liquid, Flow calorimetry

CC(C)C [2-methylpropane]
Settings | molar heat capacity at constant pressure [J/K/mol]
303.53 K, 1050 kPa | 142.52 ± 2.8
303.55 K, 1540 kPa | 141.88 ± 2.8
303.56 K, 2000 kPa | 141.53 ± 2.8
303.56 K, 3020 kPa | 140.13 ± 2.8
303.57 K, 2500 kPa | 140.83 ± 2.8
303.59 K, 9990 kPa | 135.77 ± 2.7
303.62 K, 4030 kPa | 139.55 ± 2.8
303.62 K, 4500 kPa | 139.32 ± 2.8
303.62 K, 6500 kPa | 138.1 ± 2.8
303.62 K, 7990 kPa | 136.88 ± 2.7
303.63 K, 6010 kPa | 138.45 ± 2.8
303.63 K, 7030 kPa | 137.69 ± 2.8
303.63 K, 7530 kPa | 137.34 ± 2.7
303.63 K, 8510 kPa | 136.7 ± 2.7
303.63 K, 9510 kPa | 136.24 ± 2.7
303.64 K, 5000 kPa | 139.03 ± 2.8
303.64 K, 9000 kPa | 136.47 ± 2.7
303.65 K, 5520 kPa | 138.8 ± 2.8
303.7 K, 3480 kPa | 139.78 ± 2.8
303.82 K, 11510 kPa | 134.38 ± 2.7
303.82 K, 12000 kPa | 134.2 ± 2.7
303.86 K, 10530 kPa | 135.37 ± 2.7
303.86 K, 11040 kPa | 134.96 ± 2.7
313.48 K, 1040 kPa | 142.81 ± 2.8
313.48 K, 6480 kPa | 138.39 ± 2.8
313.49 K, 3020 kPa | 141.12 ± 2.8
313.49 K, 7500 kPa | 138.1 ± 2.8
313.5 K, 5530 kPa | 139.09 ± 2.8
313.5 K, 6030 kPa | 138.56 ± 2.8
313.5 K, 7030 kPa | 138.27 ± 2.8
313.5 K, 8040 kPa | 137.81 ± 2.8
313.5 K, 8480 kPa | 137.69 ± 2.8
313.51 K, 1540 kPa | 142.46 ± 2.8
313.51 K, 2020 kPa | 141.93 ± 2.8
313.51 K, 2540 kPa | 141.53 ± 2.8
313.51 K, 4010 kPa | 140.6 ± 2.8
313.51 K, 9020 kPa | 137.52 ± 2.7
313.52 K, 4500 kPa | 140.07 ± 2.8
313.52 K, 9480 kPa | 137.34 ± 2.7
313.52 K, 10060 kPa | 137.28 ± 2.7
313.54 K, 5080 kPa | 139.26 ± 2.8
313.55 K, 10530 kPa | 136.59 ± 2.7
313.57 K, 11480 kPa | 136.3 ± 2.7
313.57 K, 12050 kPa | 136.12 ± 2.7
313.58 K, 3550 kPa | 140.95 ± 2.8
313.58 K, 11070 kPa | 136.47 ± 2.7
323.11 K, 1040 kPa | 146.53 ± 3
323.16 K, 1510 kPa | 146.24 ± 2.9
323.22 K, 2020 kPa | 145.77 ± 2.9
323.23 K, 3510 kPa | 144.03 ± 2.9
323.24 K, 2540 kPa | 145.01 ± 2.9
323.25 K, 3020 kPa | 144.49 ± 2.9
323.25 K, 4020 kPa | 143.62 ± 2.9
323.27 K, 10500 kPa | 139.49 ± 2.8
323.28 K, 4550 kPa | 143.33 ± 2.8
323.28 K, 10980 kPa | 139.44 ± 2.8
323.3 K, 4970 kPa | 143.04 ± 2.8
323.31 K, 11540 kPa | 139.38 ± 2.8
323.32 K, 5500 kPa | 142.69 ± 2.8
323.32 K, 5980 kPa | 142.17 ± 2.8
323.33 K, 6470 kPa | 141.7 ± 2.8
323.33 K, 7020 kPa | 141.3 ± 2.8
323.34 K, 11990 kPa | 139.2 ± 2.8
323.35 K, 7470 kPa | 141.24 ± 2.8
323.37 K, 7990 kPa | 141 ± 2.8
323.37 K, 9480 kPa | 140.07 ± 2.8
323.38 K, 8510 kPa | 140.77 ± 2.8
323.38 K, 9990 kPa | 139.67 ± 2.8
323.39 K, 9000 kPa | 140.42 ± 2.8
333.64 K, 1050 kPa | 151.06 ± 3
333.65 K, 10550 kPa | 143.33 ± 2.8
333.65 K, 10920 kPa | 143.21 ± 2.8
333.66 K, 5960 kPa | 145.65 ± 2.9
333.66 K, 11520 kPa | 143.15 ± 2.8
333.67 K, 4020 kPa | 147.05 ± 3
333.67 K, 4480 kPa | 146.76 ± 3
333.67 K, 9460 kPa | 143.5 ± 2.9
333.67 K, 11930 kPa | 143.15 ± 2.8
333.68 K, 10010 kPa | 143.62 ± 2.9
333.69 K, 1530 kPa | 150.48 ± 3
333.69 K, 5010 kPa | 146.41 ± 3
333.69 K, 7030 kPa | 145.31 ± 2.9
333.7 K, 5530 kPa | 146.12 ± 2.9
333.7 K, 6520 kPa | 145.54 ± 2.9
333.71 K, 3530 kPa | 147.63 ± 3
333.71 K, 8510 kPa | 144.43 ± 2.9
333.72 K, 2020 kPa | 149.84 ± 3
333.72 K, 2520 kPa | 149.2 ± 3
333.72 K, 8970 kPa | 144.38 ± 2.9
333.73 K, 3050 kPa | 148.79 ± 3
333.73 K, 7550 kPa | 145.13 ± 2.9
333.74 K, 8040 kPa | 145.13 ± 2.9
343.71 K, 1520 kPa | 159.49 ± 3.2
343.76 K, 2030 kPa | 157.92 ± 3.1
343.79 K, 3510 kPa | 155.13 ± 3.1
343.81 K, 2530 kPa | 157.34 ± 3.1
343.81 K, 3030 kPa | 155.65 ± 3.1
343.83 K, 4010 kPa | 154.02 ± 3.1
343.84 K, 5010 kPa | 153.09 ± 3.1
343.85 K, 4530 kPa | 153.62 ± 3.1
343.85 K, 6000 kPa | 151.06 ± 3
343.85 K, 7500 kPa | 149.49 ± 3
343.85 K, 8000 kPa | 148.27 ± 3
343.85 K, 8500 kPa | 147.98 ± 3
343.85 K, 10990 kPa | 145.77 ± 2.9
343.85 K, 12010 kPa | 145.07 ± 2.9
343.86 K, 5490 kPa | 151.93 ± 3
343.86 K, 6530 kPa | 150.36 ± 3
343.86 K, 10020 kPa | 146.82 ± 3
343.86 K, 11480 kPa | 145.48 ± 2.9
343.87 K, 9000 kPa | 147.51 ± 3
343.87 K, 10510 kPa | 146.47 ± 3
343.88 K, 7020 kPa | 150.07 ± 3
343.88 K, 9490 kPa | 147.4 ± 3
353.82 K, 2510 kPa | 163.9 ± 3.3
353.85 K, 3020 kPa | 162.57 ± 3.3
353.85 K, 9000 kPa | 152.16 ± 3.1
353.85 K, 9500 kPa | 151.7 ± 3
353.86 K, 4510 kPa | 158.62 ± 3.2
353.87 K, 4990 kPa | 158.09 ± 3.2
353.87 K, 6010 kPa | 156.06 ± 3.1
353.87 K, 7000 kPa | 153.97 ± 3.1
353.87 K, 8520 kPa | 152.22 ± 3.1
353.87 K, 10000 kPa | 151.35 ± 3
353.87 K, 10510 kPa | 151 ± 3
